In patent US10662203B2, “Pyrido[2,3-b]indole compounds for the treatment and prophylaxis of bacterial infection” (Hoffmann-La Roche Inc., priority 2017, dated 2020):
≈ marks a conversion by molar mass, not a printed value.

Tests used:
A. baumannii (ATCC17978) = assay: 50% growth inhibitory concentration (IC50) determination assay; type: cell-based; conditions: Acinetobacter baumannii, ATCC17978, A. baumannii ATCC17978; Iso-Sensitest broth; 0.098 = detection limit
Method in brief: (§1)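 Compounds were two-fold serially diluted (50 to 0.097 μM final) in Iso-Sensitest broth, with ~5×10^5 CFU/mL bacteria. Plates were incubated at 35±2° C and growth followed by OD600 every 20 min over 16 h to derive IC50.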

[1] = system: K. pneumoniae (ATCC10031); assay: as above; type: cell-based; conditions: Klebsiella pneumoniae, Iso-Sensitest broth, 0.098 = detection limit
Method in brief: as §1

S. aureus (ATCC29213) = assay: as above; type: cell-based; conditions: Staphylococcus aureus, Iso-Sensitest broth, 0.098 = detection limit
Method in brief: as §1

[2] = Lyophilisation solubility assay (LYSA); type: physicochemical; conditions: phosphate buffer, pH 6.5, aqueous buffer, thermodynamic from solid, 0.05 M phosphate buffer, HPLC-UV
Method: Lyophilisation Solubility Assay (LYSA):
The solubility of compounds of present invention was assessed by LYSA assay. Samples were prepared in duplicate from 10 mM DMSO stock solutions (20 μL) diluted in 30 μL pure DMSO. After evaporation of DMSO with a centrifugal vacuum evaporator, the residue was dissolved in 0.05 M phosphate buffer (150 μL, pH 6.5), which was stirred for one hour and shook for two hours. After one night, the solution was filtered using a microtiter filter plate. Then the filtrate and its 1/10 dilution were analyzed by HPLC-UV.

SMILES | IC50 (A. baumannii (ATCC17978)) [µM] | IC50 [1] [µM] | IC50 (S. aureus (ATCC29213)) [µM] | solubility thermodynamic [2] [µg/mL]
CNc1cc(F)c(F)c2c1[nH]c1ncc(-c3cnc4c(c3)c(=O)c(C(=O)O)cn4NC)c(N3C[C@@H](O)[C@@H](N(C)C)C3)c12 [Example 1.224] | 0.621 | < 0.098 | 0.183 | 570 (≈ 985 µM)
CNc1cc(F)c(F)c2c1[nH]c1ncc(-c3cnc4c(c3)c(=O)c(C(=O)O)cn4C)c(N3CCC4(CCN4C)C3)c12 (stereo not shown) [Example 1.237] | 0.194 | < 0.098 | < 0.098 | 145 (≈ 259 µM)
CNc1cc(F)c(F)c2c1[nH]c1ncc(-c3cnc4c(c3)c(=O)c(C(=O)O)cn4NC)c(N3CC4[C@@H](C3)OCCN4C)c12 (stereo partly shown) [Example 1.242] | 0.189 | < 0.098 | < 0.098 | 24 (≈ 40.6 µM)
CNc1cc(F)c(F)c2c1[nH]c1ncc(-c3cnc4c(c3)c(=O)c(C(=O)O)cn4C)c(N3CCC4CN(C)CCC43)c12 (stereo not shown) [Example 1.243] | 0.961 | 0.403 | 0.712 | 151 (≈ 263 µM)
CNc1cc(F)c(F)c2c1[nH]c1ncc(-c3cnc4c(c3)c(=O)c(C(=O)O)cn4C)c(N3CC[C@@H]4C3CCN4C)c12 (stereo partly shown) [Example 1.245] | 0.293 | < 0.098 | < 0.098 | 542 (≈ 969 µM)
CNc1cc(F)c(F)c2c1[nH]c1ncc(-c3cnc4c(c3)c(=O)c(C(=O)O)cn4C)c(N3CCC4C3CCCN4C)c12 (stereo not shown) [Example 1.246] | 0.317 | < 0.098 | 0.193 | > 612
CNc1cc(F)c(F)c2c1[nH]c1ncc(-c3cnc4c(c3)c(=O)c(C(=O)O)cn4NC)c(N3CCC4C3CCCN4C)c12 (stereo not shown) [Example 1.247] | 0.344 | < 0.098 | 0.217 | 516 (≈ 877 µM)
CNc1cc(F)c(F)c2c1[nH]c1ncc(-c3cnc4c(c3)c(=O)c(C(=O)O)cn4C)c(N3CC[C@@H]4C3CN4C)c12 (stereo partly shown) [Example 1.248] | 0.729 | < 0.098 | 0.199 | 222 (≈ 407 µM)
CNc1cc(F)c(F)c2c1[nH]c1ncc(-c3cnc4c(c3)c(=O)c(C(=O)O)cn4NC)c(N3CC[C@@H]4C3CCN4C)c12 (stereo partly shown) [Example 1.249] | 0.272 | < 0.098 | < 0.098 | 487 (≈ 848 µM)
CNc1cc(F)c(F)c2c1[nH]c1ncc(-c3cnc4c(c3)c(=O)c(C(=O)O)cn4C)c(N3CC4[C@@H](C3)CN4C)c12 (stereo partly shown) [Example 1.252] | 0.361 | < 0.098 | < 0.098 | 41 (≈ 75.2 µM)
CNc1cc(F)c(F)c2c1[nH]c1ncc(-c3cnc4c(c3)c(=O)c(C(=O)O)cn4C)c(N3CC[C@H](CN(C)C)C3)c12 [Example 1.256] | 0.219 | < 0.098 | < 0.098 | 202 (≈ 360 µM)
CNc1cc(F)cc2c1[nH]c1ncc(-c3cnc4c(c3)c(=O)c(C(=O)O)cn4C3CCNC3)c(N3CCCC3)c12 (stereo not shown) [Example 1.259] | 0.533 | < 0.098 | < 0.098 | 17 (≈ 31.4 µM)
CNc1cc(F)c(F)c2c1[nH]c1ncc(-c3cnc4c(c3)c(=O)c(C(=O)O)cn4C)c(N3CC4[C@H](CCN4CCCO)C3)c12 (stereo partly shown) [Example 1.260] | 0.558 | < 0.098 | < 0.098 | 277 (≈ 459 µM)
CNc1cc(Cl)cc2c1[nH]c1ncc(-c3cnc4c(c3)c(=O)c(C(=O)O)cn4NC)c(N3CC[C@H]4CN(C)CC43)c12 (stereo partly shown) [Example 1.264] | 0.267 | < 0.098 | < 0.098 | 159 (≈ 277 µM)
CNc1cc(F)cc2c1[nH]c1ncc(-c3cnc4c(c3)c(=O)c(C(=O)O)cn4NC)c(N3CCC4(C)CN(C)CC34)c12 (stereo not shown) [Example 1.273] | 0.254 | < 0.098 | < 0.098 | 468 (≈ 820 µM)
CCN1CC2[C@@H](CCN2c2c(-c3cnc4c(c3)c(=O)c(C(=O)O)cn4C)cnc3[nH]c4c(NC)cc(F)c(F)c4c23)C1 (stereo partly shown) [Example 1.279] | 0.215 | < 0.098 | < 0.098 | 151 (≈ 263 µM)
CCn1cc(C(=O)O)c(=O)c2cc(-c3cnc4[nH]c5c(NC)cc(F)cc5c4c3N3CC[C@H]4CN(C)CC43)cnc21 (stereo partly shown) [Example 1.289] | 0.21 | < 0.098 | < 0.098 | 113 (≈ 203 µM)
CNc1cc(F)cc2c1[nH]c1ncc(-c3cnc4c(c3)c(=O)c(C(=O)O)cn4C)c(N3CC[C@@H]4CCN(C)[C@@H]4C3)c12 [Example 3.18B] | 0.275 | < 0.098 | 0.133 | 338 (≈ 608 µM)
CNc1cc(F)cc2c1[nH]c1ncc(-c3cnc4c(c3)c(=O)c(C(=O)O)cn4NC)c(N3C[C@H]4OCCN(C)[C@H]4C3)c12 [Example 3.23A] | 0.865 | < 0.098 | < 0.098 | 49 (≈ 85.6 µM)
CNc1cc(F)cc2c1[nH]c1ncc(-c3cnc4c(c3)c(=O)c(C(=O)O)cn4NC)c(N3C[C@@H]4OCCN(C)[C@@H]4C3)c12 [Example 3.23B] | 0.789 | < 0.098 | < 0.098 | 58 (≈ 101 µM)
CNc1cc(F)c(F)c2c1[nH]c1ncc(-c3cnc4c(c3)c(=O)c(C(=O)O)cn4C)c(N3C[C@@H](F)C[C@H]3CN(C)C)c12 [Example 7.01, 6-(4-((2S,4S)-2-((Dimethylamino)methyl)-4-fluoropyrrolidin-1-yl)-5,6-difluoro-8-(methylamino)-9H-pyrido[2,3-b]indol-3-yl)-1-methyl-4-oxo-1,4-dihydro-1,8-naphthyridine-3-carboxylic acid] | 0.28 | < 0.098 | < 0.098 | 330 (≈ 569 µM)

Now those with a lower IC50 (A. baumannii (ATCC17978)), led by results:

IC50 (A. baumannii (ATCC17978)) [µM] | IC50 [1] [µM] | IC50 (S. aureus (ATCC29213)) [µM] | solubility thermodynamic [2] [µg/mL] | SMILES
0.049 | < 0.098 | < 0.098 | 23 (≈ 40.1 µM) | CNc1cc(F)c(F)c2c1[nH]c1ncc(-c3cnc4c(c3)c(=O)c(C(=O)O)cn4C)c(N3CC4CCCN(C)C4C3)c12 (stereo not shown) [Example 1.232]
0.092 | < 0.098 | < 0.098 | 209 (≈ 395 µM) | CNc1cc(F)cc2c1[nH]c1ncc(-c3cnc4c(c3)c(=O)c(C(=O)O)cn4C)c(N3CC[C@H](N(C)C)C3)c12 [Example 1.253]
0.13 | < 0.098 | < 0.098 | 99 (≈ 176 µM) | CNc1cc(F)c(F)c2c1[nH]c1ncc(-c3cnc4c(c3)c(=O)c(C(=O)O)cn4C)c(N3CC[C@@H](CN(C)C)C3)c12 [Example 1.255]
< 0.098 | < 0.098 | < 0.098 | 17 (≈ 29.5 µM) | CCNn1cc(C(=O)O)c(=O)c2cc(-c3cnc4[nH]c5c(NC)cc(F)c(F)c5c4c3N3CC[C@@H](N(C)C)C3)cnc21 [Example 1.258]
0.066 | < 0.098 | < 0.098 | 241 (≈ 408 µM) | CNc1cc(Cl)c(F)c2c1[nH]c1ncc(-c3cnc4c(c3)c(=O)c(C(=O)O)cn4NC)c(N3CC[C@H]4CN(C)CC43)c12 (stereo partly shown) [Example 1.266]
0.072 | < 0.098 | < 0.098 | 104 (≈ 181 µM) | CNc1cc(Cl)c(F)c2c1[nH]c1ncc(-c3cnc4c(c3)c(=O)c(C(=O)O)cn4C)c(N3CC[C@H]4CN(C)CC43)c12 (stereo partly shown) [Example 1.267]
0.112 | < 0.098 | < 0.098 | > 632 | CNc1cc(F)cc2c1[nH]c1ncc(-c3cnc4c(c3)c(=O)c(C(=O)O)cn4C)c(N3CCC4(C)CN(C)CC34)c12 (stereo not shown) [Example 1.272]
0.148 | < 0.098 | < 0.098 | 247 (≈ 433 µM) | CCNn1cc(C(=O)O)c(=O)c2cc(-c3cnc4[nH]c5c(NC)cc(F)cc5c4c3N3CC[C@H]4CN(C)CC43)cnc21 (stereo partly shown) [Example 1.290]
0.157 | < 0.098 | < 0.098 | 138 (≈ 234 µM) | CCNn1cc(C(=O)O)c(=O)c2cc(-c3cnc4[nH]c5c(NC)cc(F)c(F)c5c4c3N3CC[C@H]4CN(C)CC43)cnc21 (stereo partly shown) [Example 1.291]
0.155 | < 0.098 | 0.122 | 33 (≈ 57.4 µM) | CNc1cc(F)c(F)c2c1[nH]c1ncc(-c3cnc4c(c3)c(=O)c(C(=O)O)cn4NC)c(N3C[C@@H]4CCN(C)[C@@H]4C3)c12 [Example 3.07B]
0.087 | < 0.098 | < 0.098 | 118 (≈ 212 µM) | CNc1cc(F)cc2c1[nH]c1ncc(-c3cnc4c(c3)c(=O)c(C(=O)O)cn4NC)c(N3C[C@H]4CCN(C)[C@H]4C3)c12 [Example 3.17A]
0.075 | < 0.098 | < 0.098 | 125 (≈ 225 µM) | CNc1cc(F)cc2c1[nH]c1ncc(-c3cnc4c(c3)c(=O)c(C(=O)O)cn4NC)c(N3C[C@@H]4CCN(C)[C@@H]4C3)c12 [Example 3.17B]
0.081 | < 0.098 | < 0.098 | 172 (≈ 310 µM) | CNc1cc(F)cc2c1[nH]c1ncc(-c3cnc4c(c3)c(=O)c(C(=O)O)cn4C)c(N3CC[C@H]4CCN(C)[C@H]4C3)c12 [Example 3.18A]
